Test results from paper PMC3017600 (Nucleic Acids Research, 2010).
Where no end group is shown, it is not given here. [ ]: non-standard residue; d: D form. pS = N[C@@H](COP(=O)(O)O)C(=O)O

Key:
[1] = tested on: TopBP1(1–290) double mutants; assay: Fluorescence polarization binding, double mutants; set-up: species or system human; conditions: putative binding sites in both BRCT1 and BRCT2 disrupted
TopBP1(1–290) wild-type = TopBP1(1–290) wild-type (Homo sapiens, UniProt Q92547); type: binding; conditions: fluorescence polarization; 10 nM fluorescein-labelled peptide; 4°C, 30 min
TopBP1(1–290) [2] = biological target: TopBP1(1–290) (human, UniProt Q92547 1-290); assay: fluorescence polarisation
TopBP1(1–290) [3] = assay: Co-precipitation; type: binding, human; conditions: Glutathione Sepharose; no Mg-ATP; SDS–PAGE

Sequence of TopBP1(1–290) wild-type (Q92547 1-290): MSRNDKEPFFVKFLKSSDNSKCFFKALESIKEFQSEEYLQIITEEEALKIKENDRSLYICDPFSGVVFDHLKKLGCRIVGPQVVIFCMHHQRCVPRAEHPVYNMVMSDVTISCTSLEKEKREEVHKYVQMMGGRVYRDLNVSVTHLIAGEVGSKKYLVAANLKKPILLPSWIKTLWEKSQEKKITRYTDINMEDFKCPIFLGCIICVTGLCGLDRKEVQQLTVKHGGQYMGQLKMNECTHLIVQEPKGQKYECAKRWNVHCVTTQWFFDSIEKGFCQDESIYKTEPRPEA
Sequence of TopBP1(1–290) (human, UniProt Q92547 1-290) (Q92547 1-290): as above

fluorescein-GGPSPVLAED[pS]EGEG [Rad9, pS387]
Interaction with TopBP1(1–290) double mutants (in words) [1]: no measurable interaction

fluorescein-GGSDTDSH[pS]QDLGSPE [Rad9, pS272]
Binding to wild-type TopBP1(1–290) (in words) (TopBP1(1–290) wild-type): no significant affinity was observed

fluorescein-GGPSPVLAED[pS]EGEG (also: phosphoserine at 387 (Rad9 numbering)) [Rad9, pS387 fluorescein-labelled peptide]
Kd (TopBP1(1–290) [2]): 2.1 µM

B1: GST-Rad9Tail: GST-fusion with the C-terminus of human Rad9 (amino acids 264–391), expressed in E. coli (protein)
chain: TLSDTDSHSQDLGSPERHQPVPQLQAHSTPHPDDFANDDIDSYMIAMETTIGNEGSRVLPSISLSPGPQPPKSPGPHSEEEDEAEPSTVPGTPPPKKFRSLFFGSILAPVRSPQGPSPVLAEDSEGEG
modifications: left off: GST, N-terminal, kept
Co-precipitation of TopBP1(1–290) by GST fusion incubated with CK2α in the absence of Mg-ATP (TopBP1(1–290) [3]): failed to co-precipitate detectable
